Measured values as given in patent publication US5567692A, “9-[(substituted glycyl) amido)]-6-demethyl-6-deoxytetracyclines” (priority 1995, dated 1996).
In brackets after ≈: the same amount, converted by molar mass. Counter-ions that a name gives are not always drawn. Like-named read-outs stand apart in the source and are kept apart here.

Columns and labels:
[1] = test system: E. coli UBMS 88-1 Tet B; experiment: microbe, parasite or virus in culture; type: cell-based
[2] = test system: E. coli PRP1 Tet A; experiment: microbe, parasite or virus in culture; type: cell-based
[3] = test system: E. coli MC 4100 TNIOC Tet B; experiment: microbe, parasite or virus in culture; type: cell-based
[4] = test system: E. coli J3272 Tet C; experiment: microbe, parasite or virus in culture; type: cell-based
[5] = test system: E. coli UBMS 89-1 Tet M; experiment: microbe, parasite or virus in culture; type: cell-based
[6] = test system: E. coli UBMS 89-2 Tet sens.; experiment: MIC, agar dilution; type: cell-based
[7] = test system: E. coli J2175; experiment: MIC, agar dilution; type: cell-based
[8] = test system: E. coli UBMS 90-4 Tet M; experiment: microbe, parasite or virus in culture; type: cell-based; conditions: Escherichia coli, UBMS904TETM, 18 h
[9] = test system: E. coli UBMS 90-5; experiment: microbe, parasite or virus in culture; type: cell-based; conditions: E. coli UBMS 90-5
[10] = test system: E. coli #311 (MP); experiment: MIC, agar dilution; type: cell-based; conditions: Escherichia coli, 18 h
[11] = test system: E. coli ATCC 25922; experiment: MIC, agar dilution; type: cell-based
[12] = test system: S. marcescens FPOR 8733; experiment: MIC, agar dilution; type: cell-based
[13] = test system: X. maltophilia NEMC 87210; experiment: MIC, agar dilution; type: cell-based
[14] = test system: Ps. aeruginosa ATCC 27853; experiment: MIC, agar dilution; type: cell-based; conditions: Ps. aeruginosa ATCC 27853
[15] = test system: S. aureus NEMC 8769; experiment: MIC, agar dilution; type: cell-based
[16] = test system: S. aureus UBMS 88-4; experiment: MIC, agar dilution; type: cell-based
[17] = test system: S. aureus UBMS 88-5 Tet M; experiment: microbe, parasite or virus in culture; type: cell-based; conditions: Staphylococcus aureus, UBMS885TETM, 18 h
[18] = test system: S. aureus UBMS 88-7 Tet K; experiment: microbe, parasite or virus in culture; type: cell-based
[19] = test system: S. aureus UBMS 90-1 Tet M; experiment: microbe, parasite or virus in culture; type: cell-based; conditions: Staphylococcus aureus, UBMS901TETM, 18 h
[20] = test system: S. aureus UBMS 90-2 Tet M; experiment: microbe, parasite or virus in culture; type: cell-based; conditions: Staphylococcus aureus, UBMS902TETM, 18 h
[21] = test system: S. aureus IVES 2943; experiment: MIC, agar dilution; type: cell-based
[22] = test system: S. aureus ROSE (MP); experiment: MIC, agar dilution; type: cell-based
[23] = test system: S. aureus SMITH (MP); experiment: MIC, agar dilution; type: cell-based
[24] = test system: S. aureus IVES 1983; experiment: MIC, agar dilution; type: cell-based
[25] = test system: S. hemolyticus AVHAH 88-3; experiment: MIC, agar dilution; type: cell-based
[26] = test system: Enterococcus 12201; experiment: MIC, agar dilution; type: cell-based
[27] = test system: E. coli J3272 Tet D; experiment: microbe, parasite or virus in culture; type: cell-based; conditions: monohydrochloride
[28] = test system: S. aureus UBMS 90-3; experiment: MIC, agar dilution; type: cell-based; conditions: S. aureus UBMS 90-3
[29] = test system: E. faecalis ATCC 29212; experiment: MIC, agar dilution; type: cell-based; conditions: E. faecalis ATCC 29212
[30] = test system: Staphylococcus aureus strain Smith (tetracycline sensitive); experiment: Acute lethal infection in mice, S. aureus Smith; type: in vivo; conditions: for ED50: mice, S. aureus Smith (Sens), 7 day survival; for in vivo activity (in words): tested intravenously against the minocycline sensitive organism S. aureus Smith
[31] = test system: E. coli BAJ9003 IMP MUT; experiment: microbe, parasite or virus in culture; type: cell-based; conditions: E. coli BAJ9003 IMP MUT
[32] = test system: S. aureus ATCC 29213; experiment: MIC, agar dilution; type: cell-based; conditions: Staphylococcus aureus, ATCC29213, 18 h, S. aureus ATCC 29213; read-out: MIC
[33] = Escherichia coli, UBMS881TETB, 18 h
[34] = Escherichia coli, PRP1TETA, 18 h
[35] = Escherichia coli, J3272TETC, 18 h
[36] = Escherichia coli, 18 h, read-out: MIC
[37] = Escherichia coli, UBMS905, 18 h, read-out: MIC
[38] = Serratia marcescens, FPOR8733, 18 h, read-out: MIC
[39] = Pseudomonas aeruginosa, ATCC27853, 18 h, read-out: MIC
[40] = Staphylococcus aureus, NEMC8769, 18 h, read-out: MIC
[41] = Staphylococcus aureus, UBMS887TETK, 18 h
[42] = Staphylococcus aureus, 18 h, read-out: MIC
[43] = Staphylococcus aureus, IVES1983, 18 h

CC(C)CNCC(=O)Nc1ccc2c(c1O)C(=O)C1=C(O)[C@]3(O)C(=O)C(C(N)=O)=C(O)[C@@H](N(C)C)C3CC1C2 (stereo partly drawn) [M, [4S-(4alpha,12aalpha)]-4-(Dimethylamino)-1,4,4a,5,5a,6,11,12a-octahydro-3,10,12,12a-tetrahydroxy-9-[[[(2-methylpropyl)amino]acetyl]amino]-1,11-dioxo-2-naphthacenecarboxamide dihydrochloride]
MIC [1, 33]: 1 µg/mL | MIC [2, 34]: 1 µg/mL | MIC ([3]; Escherichia coli, 18 h): 1 µg/mL | MIC [4, 35]: 1 µg/mL | MIC ([5]; Escherichia coli, UBMS891TETM, 18 h): 0.5 µg/mL | MIC ([6]; Escherichia coli, 18 h): 1 µg/mL | MIC [7, 36]: 1 µg/mL | MIC [8]: 0.5 µg/mL | MIC [9, 37]: 1 µg/mL | MIC [10]: 1 µg/mL | MIC ([11]; Escherichia coli, ATCC25922, 18 h): 0.5 µg/mL | MIC [12, 38]: 8 µg/mL | MIC ([13]; Stenotrophomonas maltophilia, NEMC87210, 18 h, X. maltophilia NEMC 87210, read-out: MIC): 2 µg/mL | MIC [14, 39]: 32 µg/mL | MIC [15, 40]: 8 µg/mL | MIC ([16]; Staphylococcus aureus, UBMS884, 18 h): 0.5 µg/mL | MIC [17]: 0.5 µg/mL | MIC [18, 41]: 2 µg/mL | MIC [19]: 0.5 µg/mL | MIC [20]: 0.5 µg/mL | MIC ([21]; Staphylococcus aureus, IVES2943, 18 h, S. aureus IVES 2943, read-out: MIC): 4 µg/mL | MIC [22, 42]: 8 µg/mL | MIC ([23]; Staphylococcus aureus, 18 h): 0.5 µg/mL | MIC [24, 43]: 2 µg/mL | MIC ([25]; Streptococcus pyogenes, AVHAH883, 18 h, S. hemolyticus AVHAH 88-3, read-out: MIC): 2 µg/mL | MIC ([26]; Enterococcus, 12201, 18 h): 0.5 µg/mL

CN(C)CC(=O)Nc1ccc2c(c1O)C(=O)C1=C(O)[C@]3(O)C(=O)C(C(N)=O)=C(O)[C@@H](N(C)C)C3CC1C2 (stereo partly drawn) [DD, [4S-(4alpha,12aalpha)]-4-(Dimethylamino)-9-[[(dimethylamino)acetyl]amino]-1,4,4a,5,5a,6,11,12a-octahydro-3,10,12,12a-tetrahydroxy-1,11-dioxo-2-naphthacenecarboxamide monohydrochloride]
MIC ([2]; monohydrochloride): 1 µg/mL | MIC ([4]; monohydrochloride): 1 µg/mL | MIC ([5]; monohydrochloride): 0.5 µg/mL | MIC [9]: 0.25 µg/mL | MIC [10]: 0.25 µg/mL | MIC ([11]; monohydrochloride): 0.25 µg/mL | MIC [27]: 0.25 µg/mL | MIC [12]: 4 µg/mL | MIC ([13]; X. maltophilia NEMC 87210, monohydrochloride): 2 µg/mL | MIC ([14]; monohydrochloride): 8 µg/mL | MIC ([15]; monohydrochloride): 0.03 µg/mL | MIC ([18]; monohydrochloride): 1 µg/mL | MIC ([28]; monohydrochloride): 0.06 µg/mL | MIC ([21]; S. aureus IVES 2943, monohydrochloride): 1 µg/mL | MIC ([22]; monohydrochloride): 4 µg/mL | MIC ([24]; S. aureus IVES 1983, monohydrochloride): 1 µg/mL | MIC ([25]; S. hemolyticus AVHAH 88-3, monohydrochloride): 0.25 µg/mL | MIC ([29]; monohydrochloride): 0.06 µg/mL | ED50 ([30]; Intraveneous, monohydrochloride, 10080 min): 0.67 mg/kg | ED50 ([30]; Oral, monohydrochloride, 10080 min): 12 mg/kg | in vivo activity (in words) [30]: very good in vivo activity

CN(C)[C@@H]1C(O)=C(C(N)=O)C(=O)[C@@]2(O)C(O)=C3C(=O)c4c(ccc(NC(=O)CN5CCCC5)c4O)CC3CC12 (stereo partly drawn) [D, [7S-(7alpha,10aalpha)]-N-[9-(Aminocarbonyl)-7-(dimethylamino)-5,5a,6,6a,7-10,10a,12-octahydro-1,8,10a,11-tetrahydroxy-10,12-dioxo-2-naphthacenyl]-1-pyrrolidineacetamide dihydrochloride]
MIC [1, 33]: 0.25 µg/mL | MIC [2, 34]: 0.25 µg/mL | MIC ([3]; Escherichia coli, 18 h): 0.25 µg/mL | MIC [4, 35]: 0.25 µg/mL | MIC ([6]; Escherichia coli, 18 h): 0.25 µg/mL | MIC [7, 36]: 0.25 µg/mL | MIC [8]: 0.25 µg/mL | MIC [9, 37]: 0.25 µg/mL | MIC [10]: 0.25 µg/mL | MIC [12, 38]: 2 µg/mL | MIC ([13]; Stenotrophomonas maltophilia, NEMC87210, 18 h): 1 µg/mL | MIC [14, 39]: 16 µg/mL | MIC ([15]; Staphylococcus aureus, NEMC8769, 18 h): 0.06 µg/mL | MIC [18, 41]: 0.5 µg/mL | MIC [19]: 0.25 µg/mL | MIC [20]: 0.25 µg/mL | MIC ([21]; Staphylococcus aureus, IVES2943, 18 h): 1 µg/mL | MIC [22, 42]: 2 µg/mL | MIC [24, 43]: 1 µg/mL | MIC ([25]; Streptococcus pyogenes, AVHAH883, 18 h): 0.25 µg/mL | ED50 ([30]; Staphylococcus aureus, iv, 168 h, Intraveneous, read-out: ED50): 1 to 2 mg/kg | ED50 ([30]; Staphylococcus aureus, po, 168 h, Oral, read-out: ED50): > 16 mg/kg | in vivo activity (in words) [30]: very good in vivo activity

CN(C)CC(=O)Nc1ccc2c(c1O)C(=O)C1=C(O)[C@]3(O)C(=O)C(C(N)=O)=C(O)[C@@H](N(C)C)C3CC1C2 (stereo partly drawn) [BB, [4S-(4alpha,12aalpha)]-4-(Dimethylamino)-9-[[(dimethylamino)acetyl]amino]-1,4,4a,5,5a,6,11,12a-octahydro-3,10,12,12a-tetrahydroxy-1,11-dioxo-2-naphthacenecarboxamide]
MIC ([1]; E. coli UBMS 88-1 Tet B): 0.25 µg/mL (≈ 0.486 µM) | MIC [2]: 0.5 µg/mL (≈ 0.972 µM) | MIC ([3]; E. coli MC 4100 TNIOC Tet B): 0.25 µg/mL (≈ 0.486 µM) | MIC [4]: 0.25 µg/mL (≈ 0.486 µM) | MIC ([6]; E. coli UBMS 89-2 Tet sens.): 0.25 µg/mL (≈ 0.486 µM) | MIC [7]: 0.25 µg/mL (≈ 0.486 µM) | MIC [31]: no growth | MIC ([12]; Serratia marcescens, FPOR8733, 18 h): 2 µg/mL (≈ 3.89 µM) | MIC ([13]; X. maltophilia NEMC 87210): 1 µg/mL (≈ 1.94 µM) | MIC [14]: 8 µg/mL (≈ 15.5 µM) | MIC [15, 40]: < 0.015 µg/mL | MIC ([16]; S. aureus UBMS 88-4): 0.06 µg/mL (≈ 0.117 µM) | MIC [18]: 0.5 µg/mL (≈ 0.972 µM) | MIC [28]: 0.06 µg/mL (≈ 0.117 µM) | MIC ([21]; S. aureus IVES 2943): 0.5 µg/mL (≈ 0.972 µM) | MIC ([22]; Staphylococcus aureus, 18 h): 2 µg/mL (≈ 3.89 µM) | MIC ([23]; S. aureus SMITH (MP)): 0.06 µg/mL (≈ 0.117 µM) | MIC ([24]; Staphylococcus aureus, IVES1983, 18 h, S. aureus IVES 1983, read-out: MIC): 0.5 µg/mL (≈ 0.972 µM) | MIC [32]: 0.3 µg/mL (≈ 0.583 µM) | MIC ([26]; Enterococcus 12201): 0.06 µg/mL (≈ 0.117 µM) | MIC [29]: 0.06 µg/mL (≈ 0.117 µM) | ED50 ([30]; Intraveneous, 10080 min): 0.5 to 1 mg/kg | ED50 ([30]; Oral, 10080 min): 8 to 16 mg/kg | in vivo activity (in words) [30]: very good in vivo activity
